Data taken from PubChem BioAssay (NCI).
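Method: 48-hour compound exposure of cells in 96-well plates, five concentrations, linear interpolation of endpoints. Definition used: TGI = concentration required for complete inhibition of growth.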

Columns and labels:
Assay in all cases: inhibition of tumour cell growth, NCI panel, 48 h
[1] = test system: COLO 205 colon
[2] = test system: MDA-MB-231 breast
[3] = test system: OVCAR-8 ovarian
[4] = test system: SF-295 CNS
[5] = test system: RXF 393 renal
[6] = test system: SK-MEL-5 melanoma
[7] = test system: LOX IMVI melanoma
[8] = test system: MOLT-4 leukemia
[9] = test system: HL-60(TB) leukemia
[10] = test system: NCI-H522 lung

Row | SMILES | TGI [1] [µM] | TGI [2] [µM] | TGI [3] [µM] | TGI [4] [µM] | TGI [5] [µM] | TGI [6] [µM] | TGI [7] [µM] | TGI [8] [µM] | TGI [9] [µM] | TGI [10] [µM]
1 | CCN(CC)c1ccc(/C=c2\nc(-c3ccccc3)n3c2nc2ccccc23)cc1 | 20.1 | > 100 | > 100 | 45.8 | 61 | 21.9 | 26.4 | > 100 |  | 
2 | N#CCN1CCCCCc2ccccc21 | > 100 | > 100 | > 100 | > 100 | > 100 | > 100 |  | > 100 | > 100 | 
3 | CN(C)c1ccc(/C=N/n2c(-c3ccccc3)nc3ccccc3c2=O)cc1 | > 100 | > 100 | > 100 | > 100 |  | > 100 | > 100 | > 100 | > 100 | > 100
4 | C\C=C/C=C/C=C/C(=O)O | > 100 |  | > 100 | > 100 | > 100 | > 100 | > 100 | > 100 | > 100 | > 100
5 | COc1ccc2c(c1)C1Oc3ccccc3CC1(O)CO2 (centres undefined) | > 100 | > 100 | > 100 | > 100 |  | > 100 | > 100 | > 100 |  | > 100
6 | O=C1C(Cl)=C(Oc2ccc([N+](=O)[O-])cc2)C(=O)c2c(O)ccc(O)c21 | 42.3 | 66 | > 100 | > 100 | 52.5 | > 100 |  | 25.2 | 19.2 | 40.2
7 | O=C1C(=Cc2ccco2)C(=O)C2CCCCC12 (centres undefined) | > 100 | > 100 | > 100 | > 100 | > 100 | > 100 | > 100 | > 100 |  | > 100
8 | Fc1ccc(C2NC(=S)NC3=C2CCOc2c3ccc3ccccc23)cc1 (centres undefined) | 30.3 |  | > 100 | > 100 | > 100 | 37.1 |  | > 100 | > 100 | > 100
9 | CCn1nc(-c2ccccc2)c2c1N(C)c1ccccc1-n1c(-c3ccccc3)nnc1-2 | 48.5 | 28.6 | 62.3 |  |  | 21.2 | 33 |  |  | 
10 | COC(=O)c1c(O)ccc2c1c1c(n2Cc2ccc(OC)cc2)C(=O)c2ccccc2C1=O | 3.3 |  | 11.7 | 39 | 34.3 |  | 23.2 |  | 12.1 | 17.1
11 | CN(C)NC1=NS(=O)(=O)c2cc3c(cc2S1)N(N(C)C)C(=O)c1cc2c(cc1N(N(C)C)C3=O)SC(NN(C)C)=NS2(=O)=O | > 10 |  | > 10 | > 10 | > 10 | > 10 | > 10 | > 10 | > 10 | > 10
12 | CC1(C)C2CCC1(C)C(N/C(=C(/C(Cl)=C(Cl)Cl)[N+](=O)[O-])n1nnc3ccccc31)C2 (centres undefined) | 34.4 | 53.7 | > 100 | 52.3 | 36.5 |  | > 100 |  |  | 
13 | COc1ccccc1C1=C2C(=O)N(C)C(c3ccccc3OC)=C2C(=O)N1C | > 100 | > 100 | > 100 | > 100 |  | > 100 | > 100 | > 100 | > 100 | > 100
14 | COc1cc2c(cc1OC)C1=Cc3ccc(OC)c(OC)c3C(C#N)N1CC2 (centres undefined) | 43.8 | 81.3 |  | > 100 |  | 38.6 |  | > 100 | > 100 | > 100
15 | CC(C)=NNc1cnnc2ccc([N+](=O)[O-])cc12 | > 100 | > 100 | > 100 | > 100 | > 100 | > 100 |  | > 100 | 43.2 | 52
16 | C/C=C1\CN2CCC34c5ccccc5N(C)C35OCC4(C(=O)OC)C1CC25 (centres undefined) | 31.5 | > 100 |  | > 100 |  | 33.5 | 58.3 | > 100 | 78.3 | > 100
17 | O=C(Nc1ccccc1)c1cc(S(=O)(=O)Nc2n[nH]c(=O)[nH]2)c(SSc2cc(Cl)c(C(=O)Nc3ccccc3)cc2S(=O)(=O)Nc2n[nH]c(=O)[nH]2)cc1Cl | > 100 | > 100 | > 100 | > 100 |  | > 100 | > 100 | > 100 | > 100 | > 100
18 | Cc1ccc(S(=O)(=O)N(CC(O)c2ccccc2)c2ccccc2F)cc1 (centres undefined) | 28.8 | 36.6 | 36.9 | 37.9 |  | 29.6 | 31.5 |  | 9.13 | 32

Row | SMILES | TGI [1] [µM] | TGI [2] [µM] | TGI [3] [µM] | TGI [4] [µM] | TGI [5] [µM] | TGI [6] [µM] | TGI [7] [µM] | TGI [8] [µM] | TGI [9] [µM] | TGI [10] [µM]
19 | Cc1ccc(C2(N3CCCC3)OC(C)(C)c3cccc4cccc2c34)cc1 (centres undefined) | 30.3 |  | 29.8 | 28 | 27.1 | 28.2 | 29.3 | > 100 | > 100 | 25.6
20 | O=S(=O)(O)c1ccc2c(N=Nc3ccccc3)c(O)c(S(=O)(=O)O)cc2c1 | > 100 | > 100 | > 100 | > 100 | > 100 | > 100 |  | > 100 | > 100 | > 100
21 | C/C=C1/CN2[C@@H](C3=C[C@@H]4[C@@H]5N(C3=O)c3ccccc3[C@@]53CCN5C/C(=C/C)[C@@H]4C[C@H]53)C[C@@]34c5ccccc5N5C(=O)CC=C([C@H]1C[C@H]23)[C@H]54 | 7.54 | 9.19 | 13.1 | 16.4 | 10.6 | 8.93 |  | 6.28 | 2.2 | 14.6
22 | Cc1ccccc1C(=O)C#Cc1cn(C2CC(O)C(CO)O2)c(=O)[nH]c1=O (centres undefined) | > 100 | > 100 | > 100 | > 100 | > 100 | > 100 |  | 92.5 | > 100 | 28.7
23 | O=C1c2cc([N+](=O)[O-])cnc2S(=O)(=O)N1c1ccc(Br)cc1 | > 100 | > 100 | > 100 | > 100 |  | > 100 | > 100 | > 100 | > 100 | > 100
24 | COc1ccc(OC)c(C(=O)/C=C/c2cc(O)c(O)cc2F)c1 | 31.7 | 11.4 | 24.3 | 9.25 | 23.5 | 12.4 | 16.1 |  |  | 0.948
25 | N#Cc1ccc(/C=N/NC(=O)CSCC(=O)N/N=C/c2ccc(C#N)cc2)cc1 | > 100 | 81.7 | > 100 | > 100 | > 100 | > 100 |  | > 100 | > 100 | > 100
26 | Nc1ccccc1/C=C\c1ccccc1 |  |  | > 100 | > 100 | > 100 | > 100 |  | > 100 | > 100 | 
27 | CC(=O)c1cc2c(s1)C(=O)c1scc(C(C)=O)c1C2=O | 3.54 | 0.809 | 0.63 | 2.15 | 1.54 | 1.53 | 0.224 |  |  | 1.28
28 | COC(=O)c1c(C)ccc2c(O)c3c(cc12)C(=O)c1c2c(cc(O)c1C3=O)C1(C)OC(C)(O2)C(O)C(N(C)C)C1O (centres undefined) | 7.56 | 3.21 | 2.27 | 25.1 |  | 17.3 |  | 3.2 | 15.4 | 2.33
29 | O=c1[nH]c(=S)c2cc3c(=S)[nH]c(=O)n(CCC(c4ccccc4)(c4ccccc4)c4ccccc4)c3nc2n1CCC(c1ccccc1)(c1ccccc1)c1ccccc1 | > 100 | > 100 |  | > 100 |  | > 100 |  | 84.1 |  | > 100
30 | Cc1ccc(C(=O)Cc2nc3ncccc3[nH]c2=O)cc1 | > 100 | 60.7 | 53.1 | > 100 | > 100 | > 100 |  | > 100 | > 100 | > 100
31 | CCC(C)NC(=S)N/N=C(\C)c1ccccn1 (centres undefined) | > 100 | > 100 | > 25.8 | > 33.2 | 26.9 |  | > 100 | 0.14 |  | 51.4
32 | N#CC(c1nc2ccccc2s1)c1nc(Cl)ncc1Br (centres undefined) | > 100 | > 100 | > 100 | > 100 | 90.3 | 43.5 | > 100 | > 100 |  | 62.1
33 | Cc1c(NC(=S)N/N=C\C(=N/NC(=S)Nc2c(C)n(C)n(-c3ccccc3)c2=O)c2ccccc2)c(=O)n(-c2ccccc2)n1C | > 100 | > 100 |  | > 100 | > 100 | > 100 |  | > 100 |  | 
34 | c1nncn1C12C3C4C5C3C1C5C42 (centres undefined) | > 100 | > 100 | > 100 | > 100 |  | > 100 | > 100 | > 100 | > 100 | > 100
35 | CC(C)=CC(C)C(C(O)CCC1(c2ccoc2)OCCO1)S(=O)(=O)c1ccccc1 (centres undefined) | > 100 | > 100 | > 100 | > 100 | > 100 | > 100 | > 100 |  |  | > 100
